According to paper PMC6403188, “Species-Specific Structural Requirements of Alpha-Branched Trehalose Diester Mincle Agonists” (Frontiers in Immunology, 2019):

Assays:
[1] = target: T1, mouse Mincle (Mus musculus, UniProt Q9R0Q8); experiment: HEK cells expressing mouse Mincle with NF-κB-driven SEAP reporter; type: cell-based; conditions: average calculated EC50, n = 3; plate-coated compound, 24 h; read-out: mMincle EC50 (converted)
T1 construct: host or cells: HEK (HEK-Blue) cells with NF-κB-driven SEAP reporter
T1 sequence (Q9R0Q8 1-214): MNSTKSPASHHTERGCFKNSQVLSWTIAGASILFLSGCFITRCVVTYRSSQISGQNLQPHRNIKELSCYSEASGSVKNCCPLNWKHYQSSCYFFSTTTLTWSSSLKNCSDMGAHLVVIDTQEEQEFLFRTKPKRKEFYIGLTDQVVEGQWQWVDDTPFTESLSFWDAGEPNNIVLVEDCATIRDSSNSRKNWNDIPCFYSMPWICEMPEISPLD
Method: Human and mouse Mincle expressing HEK cells were obtained from Invivogen (San Diego, CA). Cells were cultured according to the manufactures instructions in DMEM with 10% FBS, 50 U/ml penicillin, […] streptomycin, […] Normocin, 2 mM L-glutamine, 30 μg/ml blasticidin, 1 μg/ml puromycin and 1x HEK-Blue™ CLR Selection. For assay, indicated compounds were serially diluted in diluent (50%IPA/50% isooctane), 20 μl of a 10x final concentration were applied to the bottom of a 96-well tissue culture plate and the solvent was evaporated for >1 h in a biosafety hood. HEK cells were applied to the plates at a density of 3 × 10^5 cells/well and incubated for 18–24 h at 37°C. Cell supernatants were harvested and analyzed via the manufacturer's instructions using Hek-Blue^TM Detection. SEAP activity was assessed by reading the optical density (OD) at 620–655 nm with a microplate reader; data are expressed as the fold change in OD over vehicle treated cells.
To investigate the capacity of these molecules to bind to and activate the Mincle receptor, we used human embryonic kidney (HEK) cells expressing the human or mouse Mincle receptor along with an NF-κB-driven secreted embryonic alkaline phosphatase (SEAP) reporter. Many of the αTDE compounds were able to induce production of SEAP in a dose dependent manner (Figure 2). HEK null cells (HEK cells containing the NF-kB reporter without Mincle receptor) were used as a negative controls to confirm the receptor specificity of the compounds in HEK cells expressing human or mouse Mincle reporter (Supplemental Figure 4). […] The relative activity of TDM and TDB in the human and mouse HEK cells is consistent with the results reported by others ([20]). […] This synthetic version is a shorter chain version of the lipid-derived one reported to be “human-specific” ([28]).
Figure 2 Activation of human or mouse Mincle in response to synthetic αTDE compounds. The indicated compounds were dissolved in 50% isopropanol/isooctane, serially diluted in vehicle and then dried to the bottom of a tissue culture plate. HEK cells transfected with human (A–C) or mouse (D–F) Mincle and an NF-κB-driven SEAP reporter were incubated with the compounds for 24 h followed by assessment of the supernatants for SEAP levels. Data are represented as fold change in OD650 over vehicle treated cells. Graphs are mean values from three independent experiments ± SEM. Table in (G) represents the average calculated EC50 and average max SEAP value (± SD, n = 3) for each compound in each cell line. […]

[2] = system: primary human PBMCs; experiment: Cytokine production from primary human PBMCs (multiplex); type: cell-based; conditions: plate-coated compound, 24 h, 5 individual donors
Source text: PBMCs were obtained via leukapheresis from normal donors (AllCells, Berkeley, CA) or fresh blood was obtained from health human donors through a University of Montana Institutional Review Board (IRB) approved protocol. PBMCs obtained via leukapheresis were washed in 1x PBS and cryopreserved in freezing media (50% RPMI, 40% FCS, 10% DMSO) for future use. PBMCs from on-site human donors were separated from whole blood via density gradient separation using Histopaque 1077 (Sigma). Cells were washed in RPMI media containing 10% heat inactivated FBS, penicillin/streptomycin/glutamine (complete media) and resuspended at the desired cell concentration in complete media. Cells were treated with the indicated compound concentrations by addition to plates coated with a serial dilution of the stock compound in diluent (50% isopropanol/50% isooctane, fully evaporated).
Supernatants were harvested from treated cells following 18–24 h of incubation. Supernatants were analyzed using a DuoSet TNFα ELISA (R&D Systems, Minneapolis, MN) or Luminex multiplex panel for analytes TNFα, IL-1β, IL-6, IFNγ, IL-12p70, and IL-23 (R&D Systems) per the manufacturer's instructions. Multiplex analysis was performed using a Luminex 200 instrument (Luminex Corporation) and analyzed with StarStation2.3 software. ELISAs were read on a plate reader at 450 nm and cytokine concentration was calculated by fitting the standard curve OD values to a 4-parameter logistical model using curve fitting software (XLfit, IDBS, Alameda, CA).
To determine if the abridged cytokine repertoire induced by the compounds from the cell lines was a cell-specific or compound-specific phenomenon, the response of a heterogeneous primary human PBMCs to the αTDE compound library was also evaluated. Primary human PBMCs were incubated with the αTDE compound and supernatants were evaluated by multiplex cytokine ELISA for TNFα, IL-1β, IL-23, IL-6 (Th17 associated) and IFNγ and IL-12p70 (Th1 associated). As with THP-1 cells, robust dose-responsive induction of TNFα and IL-1β was detected, but unlike the THP-1 cells dose-responsive stimulation of IL-6 and IL-23 production was also noted in response to a subset of the αTDE compounds (Figure 5). No production of the Th1-associated IFNγ or IL-12p70 were detected (data not shown). […] Consistent with the previous THP-1 cell responses, the longer chain length compounds, B32-B46, induced minimal cytokine responses only at the highest dose evaluated (Figure 5, right graphs).
Figure 5 Cytokine production from primary human mononuclear cells in response to stimulation with synthetic trehalose diester compounds. […] Cryopreserved PBMCs were thawed and applied to the compound-coated plates and incubated at 37°C; supernatant was harvested 24 h later and analyzed for TNFα, IL-1β, IL-23, IL-6. […]

[3] = system: Hek Blue human or mouse Mincle-expressing cells; type: cell-based; conditions: top concentrations, 24 h; compared with vehicle only-treated cells
[4] = system: BALB/c mice; experiment: Anti-M72 serum antibody ELISA after i.m. vaccination with M72 antigen plus liposomal adjuvant; type: in vivo, mouse; conditions: 0.125 μg M72 antigen plus 2, 10, or 50 nmol adjuvant in DDA:DSPC liposomes, i.m. two times, 14 days post-secondary vaccination
Method: (§1) Animal studies were carried out in an OLAW and AAALAC accredited vivarium in accordance with University of Montana's IACUC guidelines for the care and use of laboratory animals. Groups of 10–14 BALB/c mice were vaccinated intramuscularly with 0.125 μg M72 antigen and indicated concentrations of various CLR adjuvant candidates (liposomal formulations) in 50 μl total volume per injection. After 14 days, blood and serum samples were collected and a secondary vaccination was administered. At day 19 (5 days post-secondary vaccination), 3–6 mice per group were euthanized and spleens were harvested the assessment of cell-mediated immunity. At day 28 (14 days post booster vaccination) the remaining 7 mice in each group were euthanized and blood was collected for the measurement of M72 specific humoral immunity.
Sera was collected from mice 14 days post-primary and 14 days post-secondary injection and diluted according to the expected antibody response (between 1:10 and 1:5000). Plates were coated with 100 μl of the full-length M72 protein at 1 μg/mL. Following washing (PBS plus tween 20) and blocking (SuperBlock, Scytek Laboratories), plates were incubated with diluted serum for 1 h followed by anti-mouse IgG, IgG1, or IgG2a-HRP secondary antibody (Bethyl Laboratories) and TMB substrate (BD). Plates were read at 450 nm. Antibody titers were determined by calculating titer of each sample at OD 0.3.
Figure 6 Serum antibody levels from mice in response to vaccination with recombinant M72 antigen and various αTDE compounds. BALB/c mice, 10 per group, were vaccinated two times i.m. with 0.125 μg antigen plus 2, 10, or 50 nmol of the indicated adjuvant. Serum was analyzed from 7 mice at 14 days post-secondary vaccination for presence of anti-M72 IgG1 and IgG2a antibodies via ELISA.
(§2) Figure 8 B16 liposomes biases a Th17/Th2 adaptive immune response. BALB/c mice, 14 per group, were immunized twice, 14 days apart, i.m with 0.1, 1, or 10 μg of M72 antigen plus either blank DDA:DSPC liposome or B16 loaded (10 nmol final dose) liposome. (A,B) M72-specific serum antibody titers at 14 days post-secondary vaccination. (C–F) Spleens were harvested from mice at 5 days post-secondary vaccination and restimulated with 1 μg/mL whole antigen and transport inhibitors followed by surface staining for CD3, CD4, and CD8 and then intracellular cytokine staining. (C) Percent of live, CD3^+/CD4^+/IL5+ cells, (D) Percent of live, CD3^+/CD8^+/IFNγ+ cells, (E) Percent of live, CD3^+/CD4^+/IL17+ cells, and (F) Percent of live, CD3^+/CD8^+/IL17+ cells. ^*p < 0.05, ^**p < 0.01, ^****p < 0.001.

[5] = system: BALB/c mice; experiment: Splenocyte restimulation with M72 and intracellular cytokine staining of CD4/CD8 T cells after vaccination; type: in vivo, mouse
Method: as §1
Spleens were harvested from vaccinated mice 5 days after secondary injections and splenocytes were harvested by disruption of the spleens through a 100 μm filter. Red blood cells were lysed by incubation with red blood cell lysis buffer (Sigma) for 5 min followed by washing in 1x PBS. Cells were plated in a 96 well plate at 5 × 10^6 cells/well in 200 μL complete RPMI1640 media. Cells were incubated with 1 μg/mL M72 antigen for […] at 37°C. After 7 h, GolgiPlug (Brefeldin A, BD Biosciences) was added to each well and incubated at 37°C for a further 12 h. Following incubation, cells were stained with the cell surface antibodies against CD3e PerCP-Cy5.5 (Tonbo Biosciences, 145-2C11), CD4a APC-Cy7 (Tonbo Biosciences, RM4-5) and CD8a PE-Cy7 (Tonbo Biosciences, 53–6.7) and viability stain (Ghost 510, Tonbo Biosciences). Cells were treated with cytofix/cytoperm (BD) and stained with anti-IFNγ PE-CF594 (BD, XMG1.2), anti-IL2 FITC (Biolegend, JES6-5H4), anti-IL-5 PE (BD, TRFK5), anti-IL17A BV421 (Biolegend, TC11-18H10.1), and anti-TNFα APC (Invitrogen, MP6-XT22). Data was collected using an LSRII flow cytometer (BD) and analyzed using FlowJo 10.0 software (TreeStar). Splenocytes were gated on live, single cells, then CD3+ to identify all T cells, then gated as CD4+CD8- to identify CD4 T cells or CD4-CD8+ to identify CD8 T cells. Gates for intracellular cytokine positive CD4 or CD8 T cells are set based on re-stimulation of naïve splenocytes. Gating strategies for the detection of antigen specific CD4+ and CD8+ T cells are outlined in Supplemental Figure 3.
Figure 7 Induction of IL-17 producing CD4+ and CD8+ T cells from an αTDE adjuvanted M72 vaccine. BALB/c mice, 10 per group, were immunized two times i.m. with 0.125 μg antigen plus 2, 10, or 50 nmol of the indicated adjuvant. Spleens were harvested from a subset of 3 mice per group at 5 days post-secondary vaccination. Splenocytes were restimulated with 1 μg/mL whole antigen and transport inhibitors followed by surface staining for CD3, CD4, and CD8 and then intracellular cytokine staining. Data represent percentage of live, CD3^+/CD4^+, left, or CD3^+/CD8^+, right, cells that are also positive for IL-17A upon stimulation.
as §2
Supplemental Figure 10. Production of IFNɣ, IL-2, IL-5 or TNFα by CD4 or CD8 T cells in response to various CLR compounds. […]

## CCC(CC)C(=O)OC[C@H]1O[C@H](O[C@H]2O[C@H](COC(=O)C(CC)CC)[C@@H](O)[C@H](O)[C@H]2O)[C@H](O)[C@@H](O)[C@@H]1O [Compound B6]
[1]
  EC50: 0.739 µM
[2]
  Th17-associated cytokine production (TNFα, IL-1β, IL-6, IL-23) from human PBMCs: mixed responses

## CCCC(CCC)C(=O)OC[C@H]1O[C@H](O[C@H]2O[C@H](COC(=O)C(CCC)CCC)[C@@H](O)[C@H](O)[C@H]2O)[C@H](O)[C@@H](O)[C@@H]1O [Compound B8]
[1]
  EC50: 2.85 µM
[3]
  Cell viability of Mincle HEK cells: marked decreases in viability
[2]
  Th17-associated cytokine production (TNFα, IL-1β, IL-6, IL-23) from human PBMCs: readily detected

## CCCCC(CCCC)C(=O)OC[C@H]1O[C@H](O[C@H]2O[C@H](COC(=O)C(CCCC)CCCC)[C@@H](O)[C@H](O)[C@H]2O)[C@H](O)[C@@H](O)[C@@H]1O [Compound B10]
[1]
  EC50: 3.45 µM
[3]
  Cell viability of Mincle HEK cells: marked decreases in viability
[2]
  Th17-associated cytokine production (TNFα, IL-1β, IL-6, IL-23) from human PBMCs: readily detected

## CCCCCCCCCCCCCCCCCCCCC(CCCCCCCCCCCCCCCCCCCC)C(=O)OC[C@H]1O[C@H](O[C@H]2O[C@H](COC(=O)C(CCCCCCCCCCCCCCCCCCCC)CCCCCCCCCCCCCCCCCCCC)[C@@H](O)[C@H](O)[C@H]2O)[C@H](O)[C@@H](O)[C@@H]1O [Compound B42]
[4]
  Anti-M72 serum IgG1 and IgG2a antibody: neither compound significantly enhanced
[5]; 2 nmol adjuvant, 0.125 μg antigen, over liposome control
  IL-5 production in CD8+ T cells: increased
[5]; 50 nmol adjuvant, 0.125 μg antigen, over naïve and liposome control
  IL-5 production in CD8+ T cells: increased
[5]; 0.125 μg antigen plus 2, 10, or 50 nmol liposomal adjuvant, i.m. two times, spleens 5 days post-secondary
  IL-17+ CD4+ and CD8+ T cells (Th17 response) after M72 re-stimulation: able to drive superior Th17 responses
[5]; highest dose evaluated, 0.125 μg antigen, compared to controls
  TNFα production by T cells: increased compared to controls
